Assay results taken from US11980631B2, “β-lactamase inhibitors” (priority 2017, dated 2024).
“Also recorded” adds a separate entry of the source. Read-outs that look alike come from different tables or passages of the source.

Key:
[1] = target: L2 (Stenotrophomonas maltophilia (Pseudomonas maltophilia) (Xanthomonas maltophilia), UniProt P96465); experiment: Inhibition of purified L2, fluorogenic substrate FC5 as reporter
Procedure: Steady state kinetic data were analysed by curve fitting to the Michaeilis-Menten equation using Prism software.

[2] = system: L1 β-lactamase production in S. maltophilia K279a; experiment: L1 β-lactamase induction by β-lactamase inhibitors (meropenem hydrolysis in cell extracts); format: cell-based; conditions: 50 μg.mL^−1 inducer
Procedure: L1 activity was measured from the cell extracts in a 96-well plate reader by determining meropenem hydrolysis (100 μM) at λ=300 nm. Protein concentration was determined by using BioRad protein assay dye reagent. Specific activity was calculated by using the extinction coefficient of 9600 AU/M/cm and a pathlength correction for the microplate ([…]). Data presented are means +/−SEM, n=3.
Cultures were grown overnight using nutrient broth and used to inoculate (1:100 dilution) 10 ml nutrient broth cultures in sealed 30 ml universal bottles. Cultures were incubated for 2 h with shaking at 37° C. before test inducers were added, or not, and culture was continued for 2 h. Cells were pelleted by centrifugation (4,000×g, 10 min) and pellets treated with 100 μL of BugBuster (Ambion), pipetting up and down a few times before rocking for 10 min at room temperature. […] Protein concentration was determined using the BioRad protein assay reagent concentrate according to the manufacturer's instructions. L1 β-lactamase activity was determined using an Omega Fluostar (BMG Biotech) using meropenem as substrate in half-area 96 well UV-translucent plates (Greiner UV-Star. Bio-one) with 200 μl of 100 μM meropenem solution in assay buffer (60 mM Na2HPO4.7H2O pH 7.0, 40 mM NaH2PO4.H2O, 10 mM KCI, 1 mM MgSO4.7H2O, 100 μM ZnCl2) plus 10 μL of cell extract. […]

[3] = system: S. maltophilia; experiment: microbe, parasite or virus in culture; format: cell-based, Stenotrophomonas maltophilia; conditions: for MIC of aztreonam in the presence of the β-lactamase inhibitor / MIC of ceftazidime in the presence of the β-lactamase inhibitor / MIC of meropenem in the presence of the β-lactamase inhibitor / ability to potentiate β-lactams / reverse resistance (in words): inhibitor at 2 mg/L; for ability to potentiate β-lactams / reverse resistance (in words): β-lactam and strain named in the value; for MIC: Stenotrophomonas maltophilia; for MIC / MIC of the β-lactam alone (−): no inhibitor
Procedure: S. maltophilia clinical isolates were K279a, a well characterised isolate from Bristol, UK, or were obtained from the SENTRY antimicrobial resistance survey, as previously reported. […] All growth media were from Oxoid. Chemicals were from Sigma, unless otherwise stated.
Susceptibility to β-lactams in bacterial isolates was determined using the CLSI microtitre minimum inhibitory concentration (MIC) methodology with Muller-Hinton Broth using 96 well plates (Corning, Costar). The MIC was determined as the lowest concentration of β-lactam required to entirely suppress growth. Inhibitor concentrations were kept constant at 2 mg/L or 10 mg/L in all assays. Interpretation of susceptibility/resistance was by reference to CLSI clinical breakpoints for S. maltophilia (ceftazidime) and for Pseudomonas aeruginosa (for aztreonam and meropenem, since no S. maltophilia breakpoints are available).

[4] = target: L2 (class A ESBL) (Stenotrophomonas maltophilia (Pseudomonas maltophilia) (Xanthomonas maltophilia), UniProt P96465); experiment: Steady-state hydrolysis of β-lactams by purified L2; format: biochemical, S. maltophilia
Sequence of L2 (class A ESBL) (P96465 36-303 limits assumed): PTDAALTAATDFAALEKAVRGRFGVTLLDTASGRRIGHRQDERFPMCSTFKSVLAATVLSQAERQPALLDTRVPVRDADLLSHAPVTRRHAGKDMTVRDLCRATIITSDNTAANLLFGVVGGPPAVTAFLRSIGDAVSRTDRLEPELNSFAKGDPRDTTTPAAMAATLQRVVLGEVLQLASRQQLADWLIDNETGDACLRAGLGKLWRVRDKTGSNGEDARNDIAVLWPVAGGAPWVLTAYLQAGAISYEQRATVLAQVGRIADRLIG
From the text: (§1) As a prelude to investigation the effects of β-lactamase inhibitors, the hydrolysis of a range of candidate β-lactams in vitro by purified L1 (class B3 MBL) and L2 (class A ESBL) under steady state conditions were investigated.

[5] = target: L1 (class B3 MBL) (Stenotrophomonas maltophilia (Pseudomonas maltophilia) (Xanthomonas maltophilia), UniProt P52700); experiment: Steady-state hydrolysis of β-lactams by purified L1; format: biochemical, S. maltophilia
Sequence of L1 (class B3 MBL) (P52700 whole entry, looked up): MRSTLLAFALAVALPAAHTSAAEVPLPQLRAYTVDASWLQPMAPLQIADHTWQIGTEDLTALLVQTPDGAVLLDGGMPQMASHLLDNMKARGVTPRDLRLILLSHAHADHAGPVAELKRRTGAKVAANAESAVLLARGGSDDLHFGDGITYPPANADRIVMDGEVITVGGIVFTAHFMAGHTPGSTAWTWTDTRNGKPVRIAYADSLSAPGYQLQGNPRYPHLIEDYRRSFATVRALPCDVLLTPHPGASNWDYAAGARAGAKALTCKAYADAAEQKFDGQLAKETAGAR
From the text: as §1

[6] = target: BlaC (Mycobacterium tuberculosis (strain ATCC 25618 / H37Rv), UniProt P9WKD3); experiment: BlaC inhibition assay (FC5 hydrolysis, fluorescence); format: biochemical
Sequence of BlaC (P9WKD3 35-307 limits assumed): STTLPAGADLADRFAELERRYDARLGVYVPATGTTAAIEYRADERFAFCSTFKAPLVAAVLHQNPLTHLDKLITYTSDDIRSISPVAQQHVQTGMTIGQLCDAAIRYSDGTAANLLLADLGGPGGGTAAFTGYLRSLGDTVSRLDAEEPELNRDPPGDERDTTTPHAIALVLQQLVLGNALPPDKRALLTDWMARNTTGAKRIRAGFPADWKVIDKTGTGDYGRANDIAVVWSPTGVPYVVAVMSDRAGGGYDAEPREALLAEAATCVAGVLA
Procedure: Recombinant BlaC, with an N-terminal His-tag, was produced in E. coli BL21(DE3) cells using auto-induction medium supplemented with 50 μg mL^−1 ampicillin. Cells were grown for four hours at 37° C. before cooling to 18° C. and continuing growth overnight. Cells were harvested by centrifugation (10 min, 10000 g).
FC5 was stored as a 2.5 mM solution in assay buffer supplemented with 10% (v/v) DMSO. Fluorescence measurements were made using a PHERAstar multi-mode plate reader (BMG Labtech). All assays were carried out at 25° C. Fluorescence assays were carried out using black 96 well format half area clear® plates (Greiner Bio-One) with a final assay volume of 100 μL. FC5 hydrolysis was followed by fluorescence (λex=380 nm, λem=460 nm) corresponding to the release of the umbelliferone fluorophore. The optimum concentration of enzyme for steady-state measurements was determined by examining the rate of substrate hydrolysis at varied concentrations of enzyme, with the concentration at which the initial rate remained constant for 5-10 min being selected as an appropriate enzyme concentration. Initial rates of substrate hydrolysis were determined at varying substrate concentrations. Steady-state kinetic parameters were determined by fitting of initial rates to the Michaelis-Menten equation using GraphPad Prism 5 software.
Inhibition assays were performed by monitoring the initial rate of FC5 hydrolysis via fluorescence at a range of inhibitor concentrations. Inhibitors were stored either as solids or as 100 mM stock solutions in DMSO, these were diluted to appropriate concentrations in the assay buffer. Typically inhibition assays were carried out using black 384 well format pclear® plates (Griener Bio-One) with a final assay volume of 25 μL. Enzyme concentrations were chosen to give a linear rate of FC5 hydrolysis over the first 5 min of the assay time with an FC5 concentration of 5 μM. Components were added in the following order and volumes:
The enzyme was incubated with the inhibitor for 10 min prior to initiation of the reaction by the addition of the substrate. The residual activities were calculated using the following formula:
[formula] IC50 values were calculated by fitting of residual residual activity curves using GraphPad Prism 5 software.

[7] = IC50, purified L2, FC5 substrate

Sequence of L2 (P96465 36-303 limits assumed): as the sequence (P96465 36-303 limits assumed) above

NC(=O)[C@@H]1CC[C@@H]2CN1C(=O)N2OS(=O)(=O)O [Avibactam]
IC50 [1, 7]: 14.4 nM
induction of L1 production (in words) [2]: neither avibactam nor 2 induces L1 to any measurable extent
MIC of aztreonam in the presence of the β-lactamase inhibitor ([3]; CI-20): 2 mg/L
MIC of ceftazidime in the presence of the β-lactamase inhibitor ([3]; CI-20): 4 mg/L
MIC of meropenem in the presence of the β-lactamase inhibitor ([3]; CI-20): 64 mg/L
MIC of aztreonam in the presence of the β-lactamase inhibitor ([3]; CI-29): 1 mg/L
MIC of ceftazidime in the presence of the β-lactamase inhibitor ([3]; CI-29): 1 mg/L
MIC of meropenem in the presence of the β-lactamase inhibitor ([3]; CI-29): 32 mg/L
MIC of aztreonam in the presence of the β-lactamase inhibitor ([3]; CI-31): ≤ 4 mg/L
MIC of ceftazidime in the presence of the β-lactamase inhibitor ([3]; CI-31): 128 mg/L
MIC of meropenem in the presence of the β-lactamase inhibitor ([3]; CI-31): 256 mg/L
MIC of aztreonam in the presence of the β-lactamase inhibitor ([3]; CI-31, listed as AVI): 4 mg/L
MIC of aztreonam in the presence of the β-lactamase inhibitor ([3]; K279a): 1 mg/L
MIC of ceftazidime in the presence of the β-lactamase inhibitor ([3]; K279a): 1 mg/L
MIC of meropenem in the presence of the β-lactamase inhibitor ([3]; K279a): 16 mg/L
MIC of aztreonam in the presence of the β-lactamase inhibitor ([3]; K AMI 32): 0.5 mg/L
MIC of ceftazidime in the presence of the β-lactamase inhibitor ([3]; K AMI 32): 0.5 mg/L
MIC of meropenem in the presence of the β-lactamase inhibitor ([3]; K AMI 32): 16 mg/L
MIC of aztreonam in the presence of the β-lactamase inhibitor ([3]; K CAZ 10): 1 mg/L
MIC of ceftazidime in the presence of the β-lactamase inhibitor ([3]; K CAZ 10): 8 mg/L
MIC of meropenem in the presence of the β-lactamase inhibitor ([3]; K CAZ 10): 64 mg/L
MIC of aztreonam in the presence of the β-lactamase inhibitor ([3]; K MOX 8): 0.5 mg/L
MIC of ceftazidime in the presence of the β-lactamase inhibitor ([3]; K MOX 8): 0.5 mg/L
MIC of meropenem in the presence of the β-lactamase inhibitor ([3]; K MOX 8): 16 mg/L
ability to potentiate β-lactams / reverse resistance (in words) [3]: reduce ceftazidime MICs against K279a

C[C@H]1[C@H](NC(=O)/C(=N\OC(C)(C)C(=O)O)c2csc(N)n2)C(=O)N1S(=O)(=O)O [Aztreonam]
MIC ([3]; read-out: MIC of the β-lactam alone (−), CI-20): 128 µg/mL
MIC ([3]; read-out: MIC of the β-lactam alone (−), CI-29): 128 µg/mL
MIC ([3]; read-out: MIC of the β-lactam alone (−), CI-31): 256 µg/mL
MIC ([3]; read-out: MIC of the β-lactam alone (−), K279a): 128 µg/mL
MIC ([3]; read-out: MIC of the β-lactam alone (−), K AMI 32): 128 µg/mL
MIC ([3]; read-out: MIC of the β-lactam alone (−), K CAZ 10): 256 µg/mL
MIC ([3]; read-out: MIC of the β-lactam alone (−), K MOX 8): 128 µg/mL

CC(C)(O/N=C(\C(=O)N[C@@H]1C(=O)N2C(C(=O)[O-])=C(C[n+]3ccccc3)CS[C@H]12)c1csc(N)n1)C(=O)O [Ceftazidime]
Km [4]: 548 µM
kcat [4]: 1.88 s⁻¹
kcat/KM [4]: 3.4 (μM^−1 · s^−1) × 10^−3
MIC of the β-lactam alone (−) ([3]; CI-20): 16 mg/L
MIC of the β-lactam alone (−) ([3]; CI-29): 8 mg/L
MIC of the β-lactam alone (−) ([3]; CI-31): 256 mg/L
MIC of the β-lactam alone (−) ([3]; K279a): 4 mg/L
MIC of the β-lactam alone (−) ([3]; K AMI 32): 2 mg/L
MIC of the β-lactam alone (−) ([3]; K CAZ 10): 64 mg/L
MIC of the β-lactam alone (−) ([3]; K MOX 8): 4 mg/L
Km [5]: 260 µM
kcat [5]: 1.67 s⁻¹
kcat/KM [5]: 6.4 (μM^−1 · s^−1) × 10^−3

O=C(O)[C@H]1/C(=C/CO)O[C@@H]2CC(=O)N21 [Clavulanic acid]
IC50 [1, 7]: 22.3 nM
IC50 ([1]; pIC50, purified L2, FC5 substrate): 38.9 nM
induction of L1 production (in words) [2]: induced L1 production
MIC of aztreonam in the presence of the β-lactamase inhibitor ([3]; CI-20): 4 mg/L
MIC of ceftazidime in the presence of the β-lactamase inhibitor ([3]; CI-20): 16 mg/L
MIC of meropenem in the presence of the β-lactamase inhibitor ([3]; CI-20): 32 mg/L
MIC of aztreonam in the presence of the β-lactamase inhibitor ([3]; CI-29): 1 mg/L
MIC of ceftazidime in the presence of the β-lactamase inhibitor ([3]; CI-29): 4 mg/L
MIC of meropenem in the presence of the β-lactamase inhibitor ([3]; CI-29): 16 mg/L
MIC of aztreonam in the presence of the β-lactamase inhibitor ([3]; CI-31): 2 mg/L
MIC of ceftazidime in the presence of the β-lactamase inhibitor ([3]; CI-31): 128 mg/L
MIC of meropenem in the presence of the β-lactamase inhibitor ([3]; CI-31): 256 mg/L
MIC of aztreonam in the presence of the β-lactamase inhibitor ([3]; K279a): 1 mg/L
MIC of ceftazidime in the presence of the β-lactamase inhibitor ([3]; K279a): 4 mg/L
MIC of meropenem in the presence of the β-lactamase inhibitor ([3]; K279a): 32 mg/L
MIC of aztreonam in the presence of the β-lactamase inhibitor ([3]; K AMI 32): 0.5 mg/L
MIC of ceftazidime in the presence of the β-lactamase inhibitor ([3]; K AMI 32): 1 mg/L
MIC of meropenem in the presence of the β-lactamase inhibitor ([3]; K AMI 32): 8 mg/L
MIC of aztreonam in the presence of the β-lactamase inhibitor ([3]; K CAZ 10): 0.5 mg/L
MIC of ceftazidime in the presence of the β-lactamase inhibitor ([3]; K CAZ 10): 8 mg/L
MIC of meropenem in the presence of the β-lactamase inhibitor ([3]; K CAZ 10): 8 mg/L
MIC of aztreonam in the presence of the β-lactamase inhibitor ([3]; K MOX 8): 0.25 mg/L
MIC of ceftazidime in the presence of the β-lactamase inhibitor ([3]; K MOX 8): 1 mg/L
MIC of meropenem in the presence of the β-lactamase inhibitor ([3]; K MOX 8): 8 mg/L
ability to potentiate β-lactams / reverse resistance (in words) [3]: does not reduce the MIC of ceftazidime against S. maltophilia K279a; also recorded: reduces the aztreonam MIC against K279a

C[C@@H](O)[C@H]1C(=O)N2C(C(=O)O)=C([C@H]3CCCO3)S[C@H]12 [Faropenem]
IC50 ([6]; pre-incubation time 0 min): 3.72 µM
IC50 ([6]; pre-incubation time 10 min): 2.51 µM
IC50 ([6]; pre-incubation time 60 min): 3.55 µM

C[C@@H](O)[C@H]1C(=O)N2C(C(=O)O)=C(SCCN=CN)C[C@H]12 [Imipenem]
pIC50 ([6]; pre-incubation time 0 min): 5.59 ± 0.01
pIC50 ([6]; pre-incubation time 10 min): 6.09 ± 0.02
pIC50 ([6]; pre-incubation time 60 min): 6.45 ± 0.05

C[C@@H](O)[C@H]1C(=O)N2C(C(=O)O)=C(S[C@@H]3CN[C@H](C(=O)N(C)C)C3)[C@H](C)[C@H]12 [Meropenem]
Km [4]: 28.8 µM
kcat [4]: 0.028 s⁻¹
kcat/KM [4]: 0.97 (μM^−1 · s^−1) × 10^−3
pIC50 ([6]; pre-incubation time 0 min): 5.72 ± 0.06
pIC50 ([6]; pre-incubation time 10 min): 6.41 ± 0.05
pIC50 ([6]; pre-incubation time 60 min): 7.16 ± 0.03
MIC of the β-lactam alone (−) ([3]; CI-20): 64 mg/L
MIC of the β-lactam alone (−) ([3]; CI-29): 32 mg/L
MIC of the β-lactam alone (−) ([3]; CI-31): 256 mg/L
MIC of the β-lactam alone (−) ([3]; K279a): 8 mg/L
MIC of the β-lactam alone (−) ([3]; K AMI 32): 4 mg/L
MIC of the β-lactam alone (−) ([3]; K CAZ 10): 64 mg/L
MIC of the β-lactam alone (−) ([3]; K MOX 8): 4 mg/L
Km [5]: 105 µM
kcat [5]: 23.8 s⁻¹
kcat/KM [5]: 227 (μM^−1 · s^−1) × 10^−3

C[C@]1(Cn2ccnn2)[C@H](C(=O)O)N2C(=O)C[C@H]2S1(=O)=O [Tazobactam]
IC50 ([6]; pre-incubation time 0 min): 6.46 µM
IC50 ([6]; pre-incubation time 10 min): 2.75 µM
IC50 ([6]; pre-incubation time 60 min): 3.55 µM
